16 compounds from ChEMBL document CHEMBL1128968, “Phosphinic acid inhibitors of matrix metalloproteinases” (Bioorg Med Chem Lett, 1996) can be followed below.

One assay deals with Stromelysin-1 (Homo sapiens, UniProt P08254). The assay is described as follows: Inhibition of stromelysin-1 (MMP-3).
Sequence of Stromelysin-1 (P08254 whole entry): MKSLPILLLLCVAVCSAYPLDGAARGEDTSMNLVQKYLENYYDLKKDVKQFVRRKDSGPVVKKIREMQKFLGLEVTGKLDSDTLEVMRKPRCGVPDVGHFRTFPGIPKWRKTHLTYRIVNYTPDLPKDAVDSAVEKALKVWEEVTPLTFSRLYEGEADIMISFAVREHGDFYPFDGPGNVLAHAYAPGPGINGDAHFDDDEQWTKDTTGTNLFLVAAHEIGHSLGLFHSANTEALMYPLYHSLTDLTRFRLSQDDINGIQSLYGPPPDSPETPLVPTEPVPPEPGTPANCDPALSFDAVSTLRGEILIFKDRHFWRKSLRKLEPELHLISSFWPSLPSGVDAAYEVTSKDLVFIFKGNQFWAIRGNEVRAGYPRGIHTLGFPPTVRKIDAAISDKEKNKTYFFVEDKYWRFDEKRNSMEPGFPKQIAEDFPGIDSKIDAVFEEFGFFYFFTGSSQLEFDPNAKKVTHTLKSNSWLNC
Take `CCNC(=O)NCCCCP(=O)(O)C[C@@H](CCc1ccccc1)C(=O)N[C@@H](CC(C)C)C(=O)Nc1ccccc1`: the inhibition constant Ki (commonly the equilibrium dissociation constant of an inhibitor or competing ligand from its target) turned out to be 17 nM.

In the case of `CC(C)C[C@H](NP(=O)(O)CCCCN1C(=O)c2ccccc2C1=O)C(=O)N[C@@H](Cc1c[nH]c2ccccc12)C(=O)NCc1ccccc1`, inhibition was half-maximal at 260 nM (IC50).

Compound `CC(C)C[C@H](NC(=O)[C@H](CCc1ccccc1)CP(=O)(O)CCCCNC(=O)[C@@H]1CCCN1C(=O)c1ccccc1)C(=O)Nc1ccccc1` gave a Ki of 13 nM.

For `CC(C)C[C@H](NC(=O)[C@H](Cc1ccccc1)NP(=O)(O)CCCCN1C(=O)c2ccccc2C1=O)C(=O)NCc1ccccc1`, inhibition was half-maximal at 2800 nM (IC50).

Compound `CC(C)C[C@H](NC(=O)[C@H](CCc1ccccc1)CP(=O)(O)CCCCNC(=O)Oc1ccccc1)C(=O)Nc1ccccc1` returned a Ki of 56 nM.

As to `CC(C)C[C@H](NC(=O)[C@H](Cc1ccccc1)OP(=O)(O)CCCCN1C(=O)c2ccccc2C1=O)C(=O)NCc1ccccc1`, the half-inhibitory concentration (IC50) – broadly, the concentration at which inhibition is half-maximal – is greater than 200000 nM.

As to `CC(C)C[C@H](NC(=O)[C@H](CCc1ccccc1)CP(=O)(O)CCCCN)C(=O)Nc1ccccc1`, affinity was put at a Ki of 3700 nM.

`CC(=O)N1CCC[C@H]1C(=O)NCCCCP(=O)(O)C[C@@H](CCc1ccccc1)C(=O)N[C@@H](CC(C)C)C(=O)Nc1ccccc1` gave a Ki of 62 nM. Against the preceding compound, the Ki is about 60-fold lower.

`CC(C)C[C@H](NC(=O)[C@H](CCc1ccccc1)CP(=O)(O)CNC(=O)CN1C(=O)c2ccccc2C1=O)C(=O)Nc1ccccc1` registered a Ki of 410 nM.

In turn, `CC(C)C[C@H](NC(=O)[C@H](CCc1ccccc1)CP(=O)(O)CCCCNC(=O)[C@H]1CCCN1C(=O)c1ccccc1)C(=O)Nc1ccccc1` gave a Ki of 24 nM.

On to `CC(C)C[C@H](NC(=O)[C@H](CCc1ccccc1)CP(=O)(O)CCC(=O)Nc1ccccc1)C(=O)Nc1ccccc1`, for which the inhibition constant Ki stood at 470 nM.

For the compound `CC(C)C[C@H](NC(=O)[C@H](CCc1ccccc1)CP(=O)(O)CCCCNC(=O)c1ccccc1)C(=O)Nc1ccccc1`, the inhibitory constant (Ki) stood at 5.7 nM. This Ki lies about 82-fold lower than the previous one.

Regarding `COC(=O)CCP(=O)(O)C[C@@H](CCc1ccccc1)C(=O)N[C@@H](CC(C)C)C(=O)Nc1ccccc1`, affinity was put at a Ki of 520 nM.

`CC(C)C[C@H](NC(=O)[C@H](CCc1ccccc1)CP(=O)(O)CCC(=O)NCCc1ccccc1)C(=O)Nc1ccccc1` gave a Ki of 170 nM. Compared with the last compound, the Ki is about 3.1-fold lower.

Compound `CC(C)C[C@H](NC(=O)[C@H](CCc1ccccc1)CP(=O)(O)CCCCNC(=O)Cc1ccccc1)C(=O)Nc1ccccc1` came in with an inhibition constant Ki of 30 nM. This Ki lies about 5.7-fold lower than the previous one.

Compound `CC(C)C[C@H](NC(=O)[C@H](CCc1ccccc1)CP(=O)(O)CCCCNC(=O)Nc1ccccc1)C(=O)Nc1ccccc1` came in with a Ki of 70 nM.

In a further assay the target is T1, 72 kDa type IV collagenase (Homo sapiens, UniProt P08253). The assay is described as follows: Inhibition of gelatinase-A (MMP-2) at a concentration of 1 uM.
Target sequence in this assay (P08253 110-660 limits assumed): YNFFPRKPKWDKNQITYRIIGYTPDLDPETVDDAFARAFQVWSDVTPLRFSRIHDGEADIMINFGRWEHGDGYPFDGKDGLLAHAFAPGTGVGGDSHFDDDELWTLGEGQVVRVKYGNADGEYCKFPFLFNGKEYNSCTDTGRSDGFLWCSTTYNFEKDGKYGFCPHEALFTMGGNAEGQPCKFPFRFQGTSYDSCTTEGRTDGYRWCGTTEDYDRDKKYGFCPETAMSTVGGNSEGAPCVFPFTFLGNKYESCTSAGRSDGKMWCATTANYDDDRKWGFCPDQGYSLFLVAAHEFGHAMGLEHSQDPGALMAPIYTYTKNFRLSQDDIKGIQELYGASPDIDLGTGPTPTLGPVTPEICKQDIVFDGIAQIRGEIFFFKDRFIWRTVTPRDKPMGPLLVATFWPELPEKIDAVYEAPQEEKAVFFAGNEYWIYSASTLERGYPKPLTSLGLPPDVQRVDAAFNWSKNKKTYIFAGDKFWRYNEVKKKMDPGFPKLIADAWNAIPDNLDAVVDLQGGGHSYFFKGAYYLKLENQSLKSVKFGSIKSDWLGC
As for `CC(C)C[C@H](NC(=O)[C@H](CCc1ccccc1)CP(=O)(O)CCCCNC(=O)Oc1ccccc1)C(=O)Nc1ccccc1`, the inhibition (in general, how much of the control response was suppressed) was 73%.

`CC(C)C[C@H](NC(=O)[C@H](CCc1ccccc1)CP(=O)(O)CCCCN)C(=O)Nc1ccccc1` had an inhibition of 13%.

`CC(C)C[C@H](NC(=O)[C@H](CCc1ccccc1)CP(=O)(O)CCCCNC(=O)[C@H]1CCCN1C(=O)c1ccccc1)C(=O)Nc1ccccc1` had an inhibition of 89%.

`CC(C)C[C@H](NC(=O)[C@H](CCc1ccccc1)CP(=O)(O)CCC(=O)Nc1ccccc1)C(=O)Nc1ccccc1` displayed an inhibition of 60%.

For `CC(C)C[C@H](NC(=O)[C@H](CCc1ccccc1)CP(=O)(O)CCC(=O)NCCc1ccccc1)C(=O)Nc1ccccc1`, the inhibition was 58%.

As for `CC(C)C[C@H](NC(=O)[C@H](CCc1ccccc1)CP(=O)(O)CCCCNC(=O)Nc1ccccc1)C(=O)Nc1ccccc1`, the inhibition was determined as 85%.

A further assay concerns the target T2, Interstitial collagenase (Homo sapiens, UniProt P03956).
T2 sequence (P03956 whole entry): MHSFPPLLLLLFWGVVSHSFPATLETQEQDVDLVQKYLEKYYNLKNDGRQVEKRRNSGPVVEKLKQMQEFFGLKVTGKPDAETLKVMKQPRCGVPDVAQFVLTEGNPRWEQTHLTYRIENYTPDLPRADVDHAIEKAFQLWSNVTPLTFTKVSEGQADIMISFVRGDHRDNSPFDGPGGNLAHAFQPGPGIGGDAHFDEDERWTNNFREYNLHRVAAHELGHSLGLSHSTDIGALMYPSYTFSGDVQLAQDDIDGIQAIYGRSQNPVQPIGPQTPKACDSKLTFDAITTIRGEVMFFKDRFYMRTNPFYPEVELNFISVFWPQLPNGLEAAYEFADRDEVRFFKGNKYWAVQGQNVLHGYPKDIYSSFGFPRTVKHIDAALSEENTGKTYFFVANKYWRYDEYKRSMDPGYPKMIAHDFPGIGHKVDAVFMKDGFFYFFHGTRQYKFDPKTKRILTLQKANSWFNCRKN
Description: Inhibition of collagenase-1 (MMP-1).
On to `CCNC(=O)NCCCCP(=O)(O)C[C@@H](CCc1ccccc1)C(=O)N[C@@H](CC(C)C)C(=O)Nc1ccccc1`, for which the inhibition constant (Ki) was no less than 10000 nM.

Consider `CC(C)C[C@H](NP(=O)(O)CCCCN1C(=O)c2ccccc2C1=O)C(=O)N[C@@H](Cc1c[nH]c2ccccc12)C(=O)NCc1ccccc1`, for which the midpoint of inhibition, the IC50, lay at 50 nM. In other words, the double-digit nanomolar range.

On to `CC(C)C[C@H](NC(=O)[C@H](CCc1ccccc1)CP(=O)(O)CCCCNC(=O)[C@@H]1CCCN1C(=O)c1ccccc1)C(=O)Nc1ccccc1`, for which the inhibitory constant (Ki) was no less than 10000 nM.

`CC(C)C[C@H](NC(=O)[C@H](Cc1ccccc1)NP(=O)(O)CCCCN1C(=O)c2ccccc2C1=O)C(=O)NCc1ccccc1` showed a concentration for half-maximal inhibition (IC50) of 30000 nM.

Take `CC(C)C[C@H](NC(=O)[C@H](CCc1ccccc1)CP(=O)(O)CCCCNC(=O)Oc1ccccc1)C(=O)Nc1ccccc1`: the inhibitory constant (Ki) is no less than 10000 nM.

In the case of `CC(C)C[C@H](NC(=O)[C@H](Cc1ccccc1)OP(=O)(O)CCCCN1C(=O)c2ccccc2C1=O)C(=O)NCc1ccccc1`, the IC50 was greater than 32000 nM.

In the case of `CC(C)C[C@H](NC(=O)[C@H](CCc1ccccc1)CP(=O)(O)CCCCN)C(=O)Nc1ccccc1`, the Ki is no less than 10000 nM.

`CC(=O)N1CCC[C@H]1C(=O)NCCCCP(=O)(O)C[C@@H](CCc1ccccc1)C(=O)N[C@@H](CC(C)C)C(=O)Nc1ccccc1` yielded a Ki of no less than 10000 nM.

`CC(C)C[C@H](NC(=O)[C@H](CCc1ccccc1)CP(=O)(O)CCCCNC(=O)[C@H]1CCCN1C(=O)c1ccccc1)C(=O)Nc1ccccc1`: the inhibition constant Ki is no less than 10000 nM.

On to `CC(C)C[C@H](NC(=O)[C@H](CCc1ccccc1)CP(=O)(O)CCC(=O)Nc1ccccc1)C(=O)Nc1ccccc1`, for which the Ki was no less than 10000 nM.

`CC(C)C[C@H](NC(=O)[C@H](CCc1ccccc1)CP(=O)(O)CCCCNC(=O)c1ccccc1)C(=O)Nc1ccccc1` gave a Ki of no less than 10000 nM.

`COC(=O)CCP(=O)(O)C[C@@H](CCc1ccccc1)C(=O)N[C@@H](CC(C)C)C(=O)Nc1ccccc1` gave a Ki of no less than 10000 nM.

As for `CC(C)C[C@H](NC(=O)[C@H](CCc1ccccc1)CP(=O)(O)CCC(=O)NCCc1ccccc1)C(=O)Nc1ccccc1`, the Ki was no less than 10000 nM.

In turn, `CC(C)C[C@H](NC(=O)[C@H](CCc1ccccc1)CP(=O)(O)CCCCNC(=O)Cc1ccccc1)C(=O)Nc1ccccc1` gave a Ki of no less than 10000 nM.

In turn, `CC(C)C[C@H](NC(=O)[C@H](CCc1ccccc1)CP(=O)(O)CCCCNC(=O)Nc1ccccc1)C(=O)Nc1ccccc1` registered an inhibition constant (Ki) of no less than 10000 nM.

In the next assay the target is T1, 72 kDa type IV collagenase. Description: Inhibition of gelatinase-A (MMP-2).
Target sequence in this assay (P08253 whole entry): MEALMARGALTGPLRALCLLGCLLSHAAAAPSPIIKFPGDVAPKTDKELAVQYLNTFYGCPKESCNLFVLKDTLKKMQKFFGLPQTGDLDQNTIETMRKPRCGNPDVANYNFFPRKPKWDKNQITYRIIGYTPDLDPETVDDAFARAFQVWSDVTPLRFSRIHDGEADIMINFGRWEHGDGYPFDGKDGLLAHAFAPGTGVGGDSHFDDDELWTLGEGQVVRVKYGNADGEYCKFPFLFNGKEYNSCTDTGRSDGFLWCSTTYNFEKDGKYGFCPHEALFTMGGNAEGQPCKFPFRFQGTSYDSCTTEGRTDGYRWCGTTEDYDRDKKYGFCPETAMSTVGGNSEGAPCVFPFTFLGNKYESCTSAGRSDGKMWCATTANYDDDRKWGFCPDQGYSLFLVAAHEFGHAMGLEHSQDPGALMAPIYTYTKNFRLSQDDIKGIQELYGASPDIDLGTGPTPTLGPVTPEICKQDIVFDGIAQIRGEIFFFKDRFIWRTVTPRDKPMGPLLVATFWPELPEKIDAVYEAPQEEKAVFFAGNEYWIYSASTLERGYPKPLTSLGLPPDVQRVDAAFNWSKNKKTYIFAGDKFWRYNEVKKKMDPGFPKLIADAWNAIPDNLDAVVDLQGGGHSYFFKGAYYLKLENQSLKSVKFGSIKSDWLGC
In turn, `CCNC(=O)NCCCCP(=O)(O)C[C@@H](CCc1ccccc1)C(=O)N[C@@H](CC(C)C)C(=O)Nc1ccccc1` displayed an inhibition constant (Ki) of 19 nM. That is a double-digit nanomolar value.

Another assay addresses T1, 72 kDa type IV collagenase. The assay is described as follows: Inhibition of gelatinase-A (MMP-2).
Target sequence in this assay (P08253 whole entry): as above
In turn, `CC(C)C[C@H](NC(=O)[C@H](CCc1ccccc1)CP(=O)(O)CCCCNC(=O)[C@@H]1CCCN1C(=O)c1ccccc1)C(=O)Nc1ccccc1` came in with a Ki of 2.1 nM.

The compound `CC(=O)N1CCC[C@H]1C(=O)NCCCCP(=O)(O)C[C@@H](CCc1ccccc1)C(=O)N[C@@H](CC(C)C)C(=O)Nc1ccccc1` gave a Ki of 6.1 nM.

On to `CC(C)C[C@H](NC(=O)[C@H](CCc1ccccc1)CP(=O)(O)CCCCNC(=O)c1ccccc1)C(=O)Nc1ccccc1`, for which the affinity, expressed as Ki, was 26 nM. This Ki is about 4.3-fold higher than that of the compound before.

On to `COC(=O)CCP(=O)(O)C[C@@H](CCc1ccccc1)C(=O)N[C@@H](CC(C)C)C(=O)Nc1ccccc1`, for which the affinity, expressed as Ki, was 1300 nM.

The compound `CC(C)C[C@H](NC(=O)[C@H](CCc1ccccc1)CP(=O)(O)CCCCNC(=O)Cc1ccccc1)C(=O)Nc1ccccc1` yielded a Ki of 130 nM.
